Legend:
umami taste [1] = assay: Evaluation of amides 1 and 4 in a pork flavor, trained panel; type: in vivo, human; details: amide at 20 ppm in pork flavor; scale 0 to 10; 5 panelists; pork flavor alone = 4.5
Experimental: 3) Evaluation of Amides 1 and 4 in a Pork Flavor
Amides 1 and 4 were evaluated at 20 ppm by 5 trained panelists in a pork flavor on a blind test basis as described above.

umami taste [2] = assay: Umami intensity and liking of amide 1, an ingredient and their blend in hot mineral water, trained panel; type: in vivo, human
Experimental: Pat. No. 7,807,206 (containing Rebaudioside A and stevioside), sea salt, succinic acid, yeast extract, hydrolyzed corn protein, or hydrolyzed wheat gluten) and a blend of the amide with the ingredient were weighed and hot mineral water was added to each sample according to the dosages indicated in each experiments. The samples were stirred in order to ensure the solubilisation of the ingredients. Each sample was coded, and tasted in a random order by 5 trained panelists. […] The panelists were also asked to describe the samples.

[3] = Table 10, scale 1-10, MSG 0.04%, Amide 1 20 ppm, glucosylated stevosides 8 ppm, blend 20 ppm + 8 ppm
[4] = Table 11, scale 1-10, MSG 0.04%, Amide 1 20 ppm, Sea Salt 0.03%, blend 20 ppm + 0.03%
[5] = Table 12, scale 1-10, MSG 0.04%, Amide 1 20 ppm, Succinic acid 36 ppm, blend 20 ppm + 36 ppm
[6] = Table 13, scale 1-10, MSG 0.04%, Amide 1 20 ppm, Yeast extract 60 ppm, blend 20 ppm + 60 ppm
[7] = Table 14, scale 1-10, MSG 0.04%, Amide 1 20 ppm, Yeast extract 175 ppm, blend 20 ppm + 175 ppm
[8] = Table 15, scale 1-10, MSG 0.04%, Amide 1 10 ppm, Yeast extract 60 ppm, blend 10 ppm + 60 ppm
[9] = Table 16, scale 1-10, MSG 0.04%, Amide 1 20 ppm, Hydrolized corn protein 40 ppm, blend 20 ppm + 40 ppm
[10] = Table 17, scale 1-10, MSG 0.04%, Amide 1 20 ppm, Hydrolized corn protein 320 ppm, blend 20 ppm + 320 ppm
[11] = Table 18, scale 1-10, MSG 0.04%, Amide 1 20 ppm, Hydrolized wheat gluten 100 ppm, blend 20 ppm + 100 ppm
[12] = Table 19, scale 1-10, MSG 0.04%, Amide 1 10 ppm, Nature Pep 971481 100 ppm, blend 10 ppm + 100 ppm

| SMILES | Umami intensity (umami taste [1]) | Umami (umami taste [2]; [3]) | Umami (umami taste [2]; [4]) | Umami (umami taste [2]; [5]) | Umami (umami taste [2]; [6]) | Umami (umami taste [2]; [7]) | Umami (umami taste [2]; [8]) | Umami (umami taste [2]; [9]) | Umami (umami taste [2]; [10]) | Umami (umami taste [2]; [11]) | Umami (umami taste [2]; [12]) |
| --- | --- | --- | --- | --- | --- | --- | --- | --- | --- | --- | --- |
| COc1ccc(CCNC(=O)/C=C/c2ccc(OC)c(OC)c2)cc1 [Amide 1, (E)-3-(3,4-dimethoxyphenyl)-N-(4-methoxyphenethyl)acrylamide] | 6 | 4.8 | 3.3 | 3.7 | 4.5 | 4.5 | 2.5 | 4.2 | 1.7 | 4.0 | 3.7 |
| COc1cccc(CCNC(=O)/C=C/c2ccc(OC)c(OC)c2)c1 [Amide 4, (E)-3-(3,4-dimethoxyphenyl)-N-(3-methoxyphenethyl)acrylamide] | 7 | – | – | – | – | – | – | – | – | – | – |
| N[C@@H](CCC(=O)O)C(=O)[O-].[Na+] [MSG, monosodium glutamate, reference compound] | – | 5.8 | 5.8 | 4.2 | 5.5 | 5.5 | 4.0 | 5.4 | 3.0 | 5.5 | 7.2 |
| O=C(O)CCC(=O)O [Succinic acid, succinic acid] | – | – | – | 1.0 | – | – | – | – | – | – | – |

From US11224243B2, “Taste-modifying combinations” (FIRMENICH SA, priority 2012, dated 2022)
